Experimental data as given in patent US6897316B2, “Substituted 2-phenyl-4-quinolone-3-carboxylic acid compounds and their use as antitumor agents” (China Medical University, priority 2003, dated 2005).
In brackets after ≈: the same amount, converted by molar mass.

Experiments:
[1] = test system: human ovarian cancer (IA9) cell line; test: Activity against HTCL replication, IA9; assay type: cell-based
Method: (§1) Compounds were assayed for in vitro cytotoxicity in a panel of human tumor cell lines at the School of Pharmacy, University of North Carolina at Chapel Hill, according to procedures described previously [Lee, K. H., Lin, Y. M., Wu, T. S., Zhang, D. C., Yamagishi, T., Hayashi, T., Hall, I. H., Chang, J. J., Wu, R. Y., Yang, T. H. The cytotoxic principles of Prunella vulgaris, Psychotria serpens, and Hyptis capitata: Ursolic acid and related derivatives. Planta Med. 1988, 54, 308-11; Boyd, M. R. Status of the National Cancer Institute preclinical antitumor drug discovery screen: implications for selection of new agents for clinical trial. Devita, V. T., Jr. Hellman, S., Rosenberg, S. A., Eds, J. B. Cancer: Principles and Practice of Oncology Update, 1989, 3: pp1-12, Lippincoft: Philadephia; Monks, A., Scudiero, D., Skehan, P., Shoemaker, R., Paull, K., Vistica, D., Hose, C., Langley, J., Cronise, P., Vaigro-Wolff, A., Gray-Goodrich, M., Campbell, H., Mayo, J., Boyd, M. Feasibility of a high-flux anticancer drug screen using a diverse panel of cultured human tumor cell lines. J. Natl. Cancer Inst. 1991, 83, 757-66.] The cell lines included human ovarian cancer (1A9), ileocecal carcinoma (HCT-8), lung carcinoma (A-549), glioblastoma (U-87-MG), bone (HOS), epidermoid carcinoma of the naynx (KB), P-gp-expressing epidermoid carcinoma of the nasopharynx (KB-VIN), and melanoma (SKMEL-2) cell line. The cytotoxic effects of each compound were obtained as EC50 values, which represent the molar drug concentrations required to cause 50% inhibition.
Antitumor activity of compounds IX-8 and X-8 was further tested on the following 8 cancer cell lines: CAKI, HOS, KB, KB-VIN, SK-MEL-2, U87-MG, HCT-8 and IA9. […] It is worth mentioning that these two compounds were quite active against human ovarian cancer cells (IA9), which were known to have a high level of drug resistant P-glycoprotein. IC50 of compound IX-8 against these cancer cells is only 0.03 μg/mL. Thus, this compound is really worth developing, particular against drug resistant ovarian cancer.

bone (HOS) cell line = test: Activity against HTCL replication, HOS; assay type: cell-based, human; conditions: mean ED50
Method: as §1, with “The cell lines included human ovarian cancer (1A9), ileocecal carcinoma (HCT-8), lung carcinoma (A-549), glioblastoma (U-87-MG), bone (HOS), epidermoid carcinoma of the naynx (KB), P-gp-expressing epidermoid carcinoma of the nasopharynx (KB-VIN), and melanoma (SKMEL-2) cell line. The cytotoxic effects of each compound were obtained as EC50 values, which represent the molar drug concentrations required to cause 50% inhibition.” left out

[2] = test system: lung cancer cell line (A-549); test: Preliminary cytotoxicity screening against lung cancer cell line A-549 (SRB assay); assay type: cell-based, human; conditions: Homo sapiens, A549; A-549; 50% reduction in absorbance at 562 nm relative to untreated cells, SRB assay; Table 1 (esters VII, acids IX); read-out: ED50 (cytotoxicity against A-549)
Method: as §1
Preliminary screening of antitumor activity was based on the cytotoxicity tested in human long cancer (A-549) cell lines. […] Among 3-carboxylic acid derivatives (IX), the cytotoxicity was not remarkable when the m-position of 2-phenyl group was substituted by OCH3 group (IX-3, 7, 11). ED50 values were greater than 20 μg/mL. […] The antitumor activity was not good, if there was no substitution on the m-position of 2-phenyl group ([…]).

[3] = test system: Vincristine-resistant epidermoid carcinoma of the nasopharynx (KB-VIN) cell line; test: Activity against HTCL replication, KB-VIN; assay type: cell-based, human; conditions: mean ED50
Method: as §1, with “The cell lines included human ovarian cancer (1A9), ileocecal carcinoma (HCT-8), lung carcinoma (A-549), glioblastoma (U-87-MG), bone (HOS), epidermoid carcinoma of the naynx (KB), P-gp-expressing epidermoid carcinoma of the nasopharynx (KB-VIN), and melanoma (SKMEL-2) cell line. The cytotoxic effects of each compound were obtained as EC50 values, which represent the molar drug concentrations required to cause 50% inhibition.” left out

melting point: 268 °C (dec.)
IC50 ([1]; Homo sapiens, IA9, as worded in text, read-out: IC50 against human ovarian cancer cells (IA9)): 0.03 µg/mL (≈ 0.0958 µM)
Compound: COc1ccc2[nH]c(-c3cccc(F)c3)c(C(=O)O)c(=O)c2c1 [IX-8, 3′-Fluoro-6-methoxy-2-phenyl-4-quinolone-3-carboxylic acid]
ED50 IA9 ([1]; ovarian cancer IA9, mean ED50): 0.03 µg/mL (≈ 0.0958 µM)
ED50 HOS (bone (HOS) cell line): 0.14 µg/mL (≈ 0.447 µM)
IC50 [2]: 0.19 µg/mL (≈ 0.606 µM)
ED50 KB-VIN [3]: 0.13 µg/mL (≈ 0.415 µM)
